The NIST ThermoML archive (doi:10.1021/je0504459)

Assay: xn = mol fraction of the nth substance listed
Details: 101 kPa, Liquid; for speed of sound: Sing-around technique in a fixed-path interferometer

ClC(Cl)Cl [trichloromethane] + CCCCCO
Details	kinematic viscosity, 303.15 K [m2/s]	kinematic viscosity, 313.15 K [m2/s]	mass density, 303.15 K [kg/m3]	mass density, 313.15 K [kg/m3]	speed of sound, 303.15 K [m/s]	speed of sound, 313.15 K [m/s]
x1 = 0.0603	3.29e-06	2.56e-06	838.65	830.58	1241	1206
x1 = 0.1009	3.02e-06	2.35e-06	859.39	850.98	1226	1191
x1 = 0.1484	2.7e-06	2.12e-06	884.22	875.42	1209	1173
x1 = 0.1999	2.37e-06	1.88e-06	911.83	902.58	1190	1154
x1 = 0.2517	2.08e-06	1.66e-06	940.34	930.67	1171	1135
x1 = 0.2999	1.83e-06	1.48e-06	967.6	957.42	1153	1117
x1 = 0.3492	1.61e-06	1.31e-06	996.23	985.58	1135	1099
x1 = 0.3998	1.39e-06	1.15e-06	1026.46	1015.29	1118	1082
x1 = 0.45	1.22e-06	1.02e-06	1057.32	1045.59	1101	1065
x1 = 0.5004	1.07e-06	9.03e-07	1089.21	1076.95	1084	1048
x1 = 0.5498	9.31e-07	8.02e-07	1121.44	1108.55	1068	1032
x1 = 0.6001	8.27e-07	7.22e-07	1155.25	1141.78	1053	1017
x1 = 0.6513	7.24e-07	6.43e-07	1190.8	1176.65	1038	1002
x1 = 0.7003	6.57e-07	5.85e-07	1225.93	1211.12	1025	989
x1 = 0.751	5.85e-07	5.3e-07	1263.53	1247.97	1012	977
x1 = 0.8	5.3e-07	4.83e-07	1301.08	1284.81	1001	966
x1 = 0.8503	4.87e-07	4.48e-07	1341.02	1323.97	991	956
x1 = 0.9004	4.42e-07	4.11e-07	1382.24	1364.37	982	947
x1 = 0.952	4.05e-07	3.75e-07	1426.4	1407.56	974	938
x1 = 1	3.63e-07	3.39e-07	1469.21	1449.74	969	934
